The results in this text go back to patent publication US11401279B2, “Pyrido[3,2-d]pyrimidine compounds as immunomodulators” (Incyte Corporation, priority 2019, dated 2022).

The subject of the assay is PD-L1 aAPC/CHO-K1 cells and Jurkat-PD-1-NFAT effector cells. Nature of the assay: Nuclear factor of activated T-cells (NFAT) assay. It is filed as cell-based. The conditions noted are these: Cricetulus griseus, CHO-K1; luminescence, 24 hours. The method, boiled down: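 PD-L1 aAPC/CHO-K1 cells (8000/well) co-cultured with Jurkat-PD-1-NFAT effector cells (10,000/well) plus compound in RPMI/1% FBS, 0.4% DMSO, top concentration 2 μM, 24 h at 37 °C. NFAT luciferase read by Bio-Glo luminescence. Fold induction normalized to DMSO; maximum induction relative to control compound; EC50 from curve fit.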
With `Cc1c(Nc2nc(C(F)F)nc3cc(CN4CC[C@@H](O)C4)cnc23)cccc1-c1cccc(NC(=O)c2nc3c(n2C)CCN(CCC24CCC(C(=O)O)(CC2)C4)C3)c1Cl` [Example 1, (R)-4-(2-(2-((2-chloro-3′-((2-(difluoromethyl)-7-((3-hydroxypyrrolidin-1-yl)methyl)pyrido[3,2-d]pyrimidin-4-yl)amino)-2′-methyl-[1,1′-biphenyl]-3-yl)carbamoyl)-1-methyl-1,4,6,7-tetrahydro-5H-imidazo[4,5-c]pyridin-5-yl)ethyl)bicyclo[2.2.1]heptane-1-carboxylic Acid], the concentration giving a half-maximal response (EC50) – broadly, the midpoint of the concentration-response curve – worked out at 2 nM. In other words, the single-digit nanomolar range.
In the case of `Cc1c(Nc2nc(C(F)F)nc3cc(CN4CC[C@@](C)(O)C4)cnc23)cccc1-c1cccc(NC(=O)c2nc3c(n2C)CCN(CCC24CCC(C(=O)O)(CC2)C4)C3)c1Cl` [Example 2, (R)-4-(2-(2-((2-chloro-3′-((2-(difluoromethyl)-7-((3-hydroxy-3-methylpyrrolidin-1-yl)methyl)pyrido[3,2-d]pyrimidin-4-yl)amino)-2′-methyl-[1,1′-biphenyl]-3-yl)carbamoyl)-1-methyl-1,4,6,7-tetrahydro-5H-imidazo[4,5-c]pyridin-5-yl)ethyl)bicyclo[2.2.1]heptane-1-carboxylic Acid] it was 4 nM; in that of `Cc1c(NC(=O)c2nc3c(n2C)CCN(CCC24CCC(C(=O)O)(CC2)C4)C3)cccc1-c1cccc(Nc2nc(C(F)F)nc3cc(CN4CC[C@@H](O)C4)cnc23)c1C` [Example 5, (R)-4-(2-(2-((3′-((2-(difluoromethyl)-7-((3-hydroxypyrrolidin-1-yl)methyl)pyrido[3,2-d]pyrimidin-4-yl)amino)-2,2′-dimethyl-[1,1′-biphenyl]-3-yl)carbamoyl)-1-methyl-1,4,6,7-tetrahydro-5H-imidazo[4,5-c]pyridin-5-yl)ethyl)bicyclo[2.2.1]heptane-1-carboxylic Acid], 9.2 nM.
